Measurements taken from ChEMBL document CHEMBL5712083, “Regulation of Epstein-Barr Virus Life Cycle and Cell Proliferation by Histone H3K27 Methyltransferase EZH2 in Akata Cells” (mSphere, 2018).
Activity calls are given as the source filed them. No cut-off for these calls is given here.

What was measured:
Type in all cases: cell-based
[1] = molecular target: Histone-lysine N-methyltransferase EZH2 (Homo sapiens) (UniProt Q15910); assay: Inhibition of EZH2 in human EBV-positive Akata cells assessed as increase in lytic gene LMP1 at 1 uM after 3 days by qRT-PCR analysis relative control; settings: time 3.0 day
[2] = molecular target: Histone-lysine N-methyltransferase EZH2 (Homo sapiens) (UniProt Q15910); assay: Inhibition of EZH2 in human EBV-positive Akata cells assessed as reduction in H3K27me3 levels at 1 uM after 3 days by CHIP assay; settings: time 3.0 day
[3] = molecular target: Histone-lysine N-methyltransferase EZH2 (Homo sapiens) (UniProt Q15910); assay: Inhibition of EZH2 in human EBV-positive Akata cells assessed as reduction in H3K27me3 levels at 1 uM after 3 days by Western blot analysis; settings: time 3.0 day
[4] = molecular target: Histone-lysine N-methyltransferase EZH2 (Homo sapiens) (UniProt Q15910); assay: Inhibition of EZH2 in human EBV-positive Akata cells assessed as effect on lytic gene LMP2 at 1 uM after 3 days by qRT-PCR analysis; settings: time 3.0 day
[5] = molecular target: Histone-lysine N-methyltransferase EZH2 (Homo sapiens) (UniProt Q15910); assay: Inhibition of EZH2 in human EBV-positive Akata cells assessed as effect on lytic gene EBNA1 at 1 uM after 3 days by qRT-PCR analysis; settings: time 3.0 day
[6] = molecular target: Histone-lysine N-methyltransferase EZH2 (Homo sapiens) (UniProt Q15910); assay: Inhibition of EZH2 in human EBV-positive Akata cells assessed as effect on lytic gene EBNA2 at 1 uM after 3 days by qRT-PCR analysis; settings: time 3.0 day
[7] = molecular target: Histone-lysine N-methyltransferase EZH2 (Homo sapiens) (UniProt Q15910); assay: Inhibition of EZH2 in human EBV-positive Akata cells assessed as effect on lytic gene EBER1 at 1 uM after 3 days by qRT-PCR analysis; settings: time 3.0 day
[8] = molecular target: Histone-lysine N-methyltransferase EZH2 (Homo sapiens) (UniProt Q15910); assay: Inhibition of EZH2 in human EBV-positive Akata cells assessed as effect on lytic gene BARTs at 1 uM after 3 days by qRT-PCR analysis; settings: time 3.0 day
[9] = molecular target: Histone-lysine N-methyltransferase EZH2 (Homo sapiens) (UniProt Q15910); assay: Inhibition of EZH2 in human EBV-positive Akata cells assessed as effect on lytic gene BZLF1 at 1 uM after 3 days by qRT-PCR analysis; settings: time 3.0 day
[10] = molecular target: Histone-lysine N-methyltransferase EZH2 (Homo sapiens) (UniProt Q15910); assay: Inhibition of EZH2 in human EBV-positive Akata cells assessed as effect on lytic gene gp350/200 at 1 uM after 3 days by qRT-PCR analysis; settings: time 3.0 day
[11] = molecular target: Histone-lysine N-methyltransferase EZH2 (Homo sapiens) (UniProt Q15910); assay: Inhibition of EZH2 in human EBV-positive Akata cells assessed as increase in lytic gene LMP1 at 1 uM for 3 days followed by addition of ant-IgG for lytic induction for 2 days by qRT-PCR analysis relative to control; settings: time 5.0 day
[12] = molecular target: Histone-lysine N-methyltransferase EZH2 (Homo sapiens) (UniProt Q15910); assay: Inhibition of EZH2 in human EBV-positive Akata cells assessed as effect on lytic gene LMP2 at 1 uM for 3 days followed by addition of ant-IgG for lytic induction for 2 days by qRT-PCR analysis; settings: time 5.0 day
[13] = molecular target: Histone-lysine N-methyltransferase EZH2 (Homo sapiens) (UniProt Q15910); assay: Inhibition of EZH2 in human EBV-positive Akata cells assessed as effect on lytic gene EBNA1 at 1 uM for 3 days followed by addition of ant-IgG for lytic induction for 2 days by qRT-PCR analysis; settings: time 5.0 day
[14] = molecular target: Histone-lysine N-methyltransferase EZH2 (Homo sapiens) (UniProt Q15910); assay: Inhibition of EZH2 in human EBV-positive Akata cells assessed as effect on lytic gene EBNA2 at 1 uM for 3 days followed by addition of ant-IgG for lytic induction for 2 days by qRT-PCR analysis; settings: time 5.0 day
[15] = molecular target: Histone-lysine N-methyltransferase EZH2 (Homo sapiens) (UniProt Q15910); assay: Inhibition of EZH2 in human EBV-positive Akata cells assessed as effect on lytic gene EBER1 at 1 uM for 3 days followed by addition of ant-IgG for lytic induction for 2 days by qRT-PCR analysis; settings: time 5.0 day
[16] = molecular target: Histone-lysine N-methyltransferase EZH2 (Homo sapiens) (UniProt Q15910); assay: Inhibition of EZH2 in human EBV-positive Akata cells assessed as effect on lytic gene BARTs at 1 uM for 3 days followed by addition of ant-IgG for lytic induction for 2 days by qRT-PCR analysis; settings: time 5.0 day
[17] = molecular target: Histone-lysine N-methyltransferase EZH2 (Homo sapiens) (UniProt Q15910); assay: Inhibition of EZH2 in human EBV-positive Akata cells assessed as effect on lytic gene BZLF1 at 1 uM for 3 days followed by addition of ant-IgG for lytic induction for 2 days by qRT-PCR analysis; settings: time 5.0 day
[18] = molecular target: Histone-lysine N-methyltransferase EZH2 (Homo sapiens) (UniProt Q15910); assay: Inhibition of EZH2 in human EBV-positive Akata cells assessed as effect on lytic gene gp350/200 at 1 uM for 3 days followed by addition of ant-IgG for lytic induction for 2 days by qRT-PCR analysis; settings: time 5.0 day
[19] = molecular target: Histone-lysine N-methyltransferase EZH2 (Homo sapiens) (UniProt Q15910); assay: Inhibition of EZH2 in human EBV-positive Akata cells assessed as effect on cell viability at 1 uM
[20] = molecular target: Histone-lysine N-methyltransferase EZH2 (Homo sapiens) (UniProt Q15910); assay: Inhibition of EZH2 (unknown origin) in Lymphoblastoid cells assessed as reduction in H3K27me3 levels at 1 uM after 3 days by Western blot analysis; settings: Lymphoblastoid cell, time 3.0 day
[21] = molecular target: Histone-lysine N-methyltransferase EZH2 (Homo sapiens) (UniProt Q15910); assay: Inhibition of EZH2 (unknown origin) in Lymphoblastoid cells assessed as reduction in H3K27me3 levels at 1 uM after 3 days by CHIP assay; settings: Lymphoblastoid cell, time 3.0 day
[22] = molecular target: Histone-lysine N-methyltransferase EZH2 (Homo sapiens) (UniProt Q15910); assay: Inhibition of EZH2 (unknown origin) in Lymphoblastoid cells assessed as effect on lytic gene LMP1 at 1 uM for 3 days followed by addition of TPA, A23187 and sodium butyrate for lytic induction for 2 days by qRT-PCR analysis relative to control; settings: Lymphoblastoid cell, time 5.0 day
[23] = molecular target: Histone-lysine N-methyltransferase EZH2 (Homo sapiens) (UniProt Q15910); assay: Inhibition of EZH2 (unknown origin) in Lymphoblastoid cells assessed as effect on lytic gene LMP2 at 1 uM for 3 days followed by addition of TPA, A23187 and sodium butyrate for lytic induction for 2 days by qRT-PCR analysis; settings: Lymphoblastoid cell, time 5.0 day
[24] = molecular target: Histone-lysine N-methyltransferase EZH2 (Homo sapiens) (UniProt Q15910); assay: Inhibition of EZH2 (unknown origin) in Lymphoblastoid cells assessed as effect on lytic gene EBNA1 at 1 uM for 3 days followed by addition of TPA, A23187 and sodium butyrate for lytic induction for 2 days by qRT-PCR analysis; settings: Lymphoblastoid cell, time 5.0 day
[25] = molecular target: Histone-lysine N-methyltransferase EZH2 (Homo sapiens) (UniProt Q15910); assay: Inhibition of EZH2 (unknown origin) in Lymphoblastoid cells assessed as effect on lytic gene EBNA2 at 1 uM for 3 days followed by addition of TPA, A23187 and sodium butyrate for lytic induction for 2 days by qRT-PCR analysis; settings: Lymphoblastoid cell, time 5.0 day
[26] = molecular target: Histone-lysine N-methyltransferase EZH2 (Homo sapiens) (UniProt Q15910); assay: Inhibition of EZH2 (unknown origin) in Lymphoblastoid cells assessed as effect on lytic gene EBER1 at 1 uM for 3 days followed by addition of TPA, A23187 and sodium butyrate for lytic induction for 2 days by qRT-PCR analysis; settings: Lymphoblastoid cell, time 5.0 day
[27] = molecular target: Histone-lysine N-methyltransferase EZH2 (Homo sapiens) (UniProt Q15910); assay: Inhibition of EZH2 (unknown origin) in Lymphoblastoid cells assessed as effect on lytic gene BARTs at 1 uM for 3 days followed by addition of TPA, A23187 and sodium butyrate for lytic induction for 2 days by qRT-PCR analysis; settings: Lymphoblastoid cell, time 5.0 day
[28] = molecular target: Histone-lysine N-methyltransferase EZH2 (Homo sapiens) (UniProt Q15910); assay: Inhibition of EZH2 (unknown origin) in Lymphoblastoid cells assessed as effect on lytic gene BZLF1 at 1 uM for 3 days followed by addition of TPA, A23187 and sodium butyrate for lytic induction for 2 days by qRT-PCR analysis; settings: Lymphoblastoid cell, time 5.0 day
[29] = molecular target: Histone-lysine N-methyltransferase EZH2 (Homo sapiens) (UniProt Q15910); assay: Inhibition of EZH2 (unknown origin) in Lymphoblastoid cells assessed as effect on lytic gene gp350/200 at 1 uM for 3 days followed by addition of TPA, A23187 and sodium butyrate for lytic induction for 2 days by qRT-PCR analysis; settings: Lymphoblastoid cell, time 5.0 day

Chain of Histone-lysine N-methyltransferase EZH2 (Homo sapiens) (Q15910 whole entry, looked up): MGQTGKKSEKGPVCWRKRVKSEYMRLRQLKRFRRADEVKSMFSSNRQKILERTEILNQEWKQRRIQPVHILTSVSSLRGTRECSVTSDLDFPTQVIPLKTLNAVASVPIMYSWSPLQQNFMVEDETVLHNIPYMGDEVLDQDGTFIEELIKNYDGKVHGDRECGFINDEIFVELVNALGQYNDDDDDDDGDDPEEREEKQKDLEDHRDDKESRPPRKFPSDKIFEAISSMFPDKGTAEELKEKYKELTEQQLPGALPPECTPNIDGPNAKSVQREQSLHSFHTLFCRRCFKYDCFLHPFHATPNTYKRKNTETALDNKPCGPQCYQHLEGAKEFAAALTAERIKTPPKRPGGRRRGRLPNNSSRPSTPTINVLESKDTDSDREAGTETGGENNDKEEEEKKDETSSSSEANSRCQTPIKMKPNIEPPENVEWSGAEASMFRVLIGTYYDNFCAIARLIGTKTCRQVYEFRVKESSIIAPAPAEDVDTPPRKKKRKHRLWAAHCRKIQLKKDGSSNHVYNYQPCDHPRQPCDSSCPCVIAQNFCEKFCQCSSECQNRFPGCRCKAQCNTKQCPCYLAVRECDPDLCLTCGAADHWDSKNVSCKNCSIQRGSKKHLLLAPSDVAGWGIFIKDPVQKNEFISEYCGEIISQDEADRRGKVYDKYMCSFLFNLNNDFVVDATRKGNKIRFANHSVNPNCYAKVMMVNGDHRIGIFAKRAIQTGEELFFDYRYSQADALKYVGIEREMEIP

With `CCCc1cc(C)[nH]c(=O)c1CNC(=O)c1cc(-c2ccnc(N3CCN(C)CC3)c2)cc2c1cnn2C(C)C` the fold change (FC) [1] was 2.6, the inhibition [2] was “Active” and the inhibition [3] was “Active”. For the same compound, the inhibition [4] was “inactive”, the inhibition [5] was “inactive” and the inhibition [6] was “inactive”. For the same compound, the inhibition [7] was “inactive”, the inhibition [8] was “inactive” and the inhibition [9] was “inactive”. The inhibition [10] was “inactive”, the fold change (FC) [11] was 6.7 and the inhibition [12] was “inactive”. The inhibition [13] was “inactive”, the inhibition [14] was “inactive” and the inhibition [15] was “inactive”. The inhibition [16] was “inactive”, the inhibition [17] was “inactive” and the inhibition [18] was “inactive”. For the same compound, the inhibition [19] was “inactive”, the inhibition [20] was “Active” and the inhibition [21] was “Active”. The fold change (FC) [22] was 8.3, the inhibition [23] was “inactive” and the inhibition [24] was “inactive”. The inhibition [25] was “inactive”, the inhibition [26] was “inactive” and the inhibition [27] was “inactive”. The inhibition [28] was “inactive” and the inhibition [29] was “inactive”.
